Reference: ChEMBL document CHEMBL4145688, “Potent and Orally Bioavailable Inverse Agonists of RORγt Resulting from Structure-Based Design” (J Med Chem, 2018)
Converted amounts (≈) assume the structure as drawn.

Legend:
[1] = molecular target: T1, Nuclear receptor ROR-gamma (Homo sapiens, UniProt P51449)
T1 sequence (P51449 whole entry): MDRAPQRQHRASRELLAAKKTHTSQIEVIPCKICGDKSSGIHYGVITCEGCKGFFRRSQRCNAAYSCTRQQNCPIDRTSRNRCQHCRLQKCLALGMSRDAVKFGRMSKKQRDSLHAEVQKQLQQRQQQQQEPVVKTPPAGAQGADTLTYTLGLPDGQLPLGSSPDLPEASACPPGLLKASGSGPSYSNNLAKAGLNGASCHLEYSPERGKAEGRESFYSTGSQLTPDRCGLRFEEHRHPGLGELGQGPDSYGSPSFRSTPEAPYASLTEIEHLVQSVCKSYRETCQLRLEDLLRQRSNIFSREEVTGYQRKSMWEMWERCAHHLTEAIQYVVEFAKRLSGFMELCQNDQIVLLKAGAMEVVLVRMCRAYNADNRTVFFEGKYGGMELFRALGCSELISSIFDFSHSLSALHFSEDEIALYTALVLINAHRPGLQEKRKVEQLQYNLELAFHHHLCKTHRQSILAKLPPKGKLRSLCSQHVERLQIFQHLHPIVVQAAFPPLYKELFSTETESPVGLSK

[2] = Distribution coefficient between 1-octanol and aqueous phosphate buffer, logD of the compound in pH 7.4 buffer; type: physicochemical; details: 1-octanol/aqueous phosphate buffer
[3] = molecular target: T1, Nuclear receptor ROR-gamma; experiment: Inverse agonist activity at RORgammat in human TH17 cells assessed as inhibition of IL17 release incubated for 4 days by HTRF assay; type: cell-based
[4] = molecular target: T1, Nuclear receptor ROR-gamma; remark: listed apart in the source
Description: Displacement of [3H]-2-(4-(ethylsulfonyl)phenyl)-N-(4-(2-(methoxymethyl)phenyl)thiophen-2-yl)acetamide from purified N-(HN)6-GST-TCS-human RORgammat (258 to 518 residues) incubated for 16 hrs by scintillation proximity assay

[5] = Permeability from apical to basolateral side in human Caco2 cells; type: ADME, cell-based; details: for Papp A→B: Caco-2, read-out: permeability
physchem = details: aqueous buffer, pH 7.4
Description: Solubility in aqueous buffer at pH 7.4

[6] = Unbound fraction in human plasma by equilibrium dialysis; type: ADME, cell-free
[7] = Permeability from basolateral to apical side in human Caco2 cells; type: ADME, cell-based; details: for Papp B→A: Caco-2, read-out: permeability
[8] = Permeability in human Caco2 cells assessed as drug recovery; type: ADME, cell-based; details: Caco-2, read-out: Drug recovery
[9] = Efflux ratio of permeability in human Caco2 cells; type: ADME, cell-based; details: Caco-2
[10] = Cytotoxicity in human Th17 cells assessed as effect on cell viability by cell-titer-Glo luminescent cell viability assay relative to control; type: cell-based; details: read-out: Efficacy
[11] = Intrinsic clearance in rat hepatocytes assessed per million cells; type: ADME, cell-based, Hepatocyte; details: read-out: CLH
[12] = Intrinsic clearance in human hepatocytes assessed per million cells; type: ADME, cell-based, Hepatocyte; details: read-out: CLH
hERG (KCNH2) = hERG (KCNH2) (Homo sapiens, UniProt Q12809); experiment: Inhibition of human ERG at 11 uM
[13] = Clearance in Han Wistar rat at 0.5 mg/kg, iv or 1 mg/kg, po; type: ADME, organism-based; details: in vivo
[14] = Oral absorption in Han Wistar rat at 1 mg/kg; type: ADME, organism-based; details: in vivo, read-out: Fabs
[15] = Half life in Han Wistar rat at 0.5 mg/kg, iv or 1 mg/kg, po; type: ADME, organism-based; details: in vivo
[16] = Volume of distribution at steady state in Han Wistar rat at 0.5 mg/kg, iv or 1 mg/kg, po; type: ADME, organism-based; details: in vivo, read-out: Vdss
[17] = Selectivity index, ratio of cytotoxicity in human Th17 cells to IC50 for inverse agonist activity at RORgammat in human TH17 cells assessed as inhibition of IL17 release; type: toxicity, cell-based
[18] = Oral bioavailability in Han Wistar rat at 1 mg/kg; type: ADME, organism-based; details: in vivo

Sequence of hERG (KCNH2) (Q12809 whole entry): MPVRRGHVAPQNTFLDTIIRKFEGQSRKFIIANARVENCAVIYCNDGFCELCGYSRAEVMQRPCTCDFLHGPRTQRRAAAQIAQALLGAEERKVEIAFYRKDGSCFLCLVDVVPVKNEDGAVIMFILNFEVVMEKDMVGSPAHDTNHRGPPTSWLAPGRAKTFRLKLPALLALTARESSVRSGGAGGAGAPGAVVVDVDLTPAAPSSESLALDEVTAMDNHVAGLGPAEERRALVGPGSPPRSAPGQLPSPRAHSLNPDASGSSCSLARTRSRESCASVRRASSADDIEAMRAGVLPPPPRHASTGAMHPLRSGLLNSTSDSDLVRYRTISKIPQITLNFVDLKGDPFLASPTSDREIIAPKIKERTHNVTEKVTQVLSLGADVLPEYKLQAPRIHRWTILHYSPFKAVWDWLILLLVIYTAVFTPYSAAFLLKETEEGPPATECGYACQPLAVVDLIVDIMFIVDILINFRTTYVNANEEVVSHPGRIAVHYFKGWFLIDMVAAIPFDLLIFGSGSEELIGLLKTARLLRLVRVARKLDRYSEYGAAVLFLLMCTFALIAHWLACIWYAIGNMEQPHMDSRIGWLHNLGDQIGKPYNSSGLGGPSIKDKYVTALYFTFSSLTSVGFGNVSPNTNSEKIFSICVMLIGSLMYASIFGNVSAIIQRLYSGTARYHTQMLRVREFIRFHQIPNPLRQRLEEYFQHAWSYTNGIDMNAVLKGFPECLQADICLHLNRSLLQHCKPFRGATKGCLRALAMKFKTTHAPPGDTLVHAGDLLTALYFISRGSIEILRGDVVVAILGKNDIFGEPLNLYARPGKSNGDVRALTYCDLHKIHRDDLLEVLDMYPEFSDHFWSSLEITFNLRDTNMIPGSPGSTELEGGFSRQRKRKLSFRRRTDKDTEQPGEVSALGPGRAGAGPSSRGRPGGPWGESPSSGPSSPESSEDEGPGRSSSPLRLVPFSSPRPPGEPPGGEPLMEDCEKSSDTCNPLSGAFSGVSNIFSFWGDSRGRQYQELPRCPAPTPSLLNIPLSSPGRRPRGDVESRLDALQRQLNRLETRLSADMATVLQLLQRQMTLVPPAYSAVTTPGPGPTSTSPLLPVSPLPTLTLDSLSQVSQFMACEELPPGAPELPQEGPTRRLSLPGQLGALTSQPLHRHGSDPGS

IC50 [1] [nM]	logD [2]	IC50 [3] [nM]	IC50 [4] [nM]	hepatocyte CLint [11] [µL/min/1e6 cells]	Compound	Emax [10] [%]	also measured
22	> 4.2	180	9	–	CCS(=O)(=O)c1ccc(CC(=O)Nc2nc(-c3cccc(Cl)c3)c(C(=O)c3ccccc3Cl)s2)cc1	–	–
23	4.5	6	2	–	CCS(=O)(=O)c1ccc(CC(=O)Nc2cc(-c3cccc(Cl)c3)c(C(=O)c3ccccc3Cl)s2)cc1	40	Papp A→B [5]: < 0.001 ×10⁻⁶ cm/s; solubility (physchem): < 0.1 µM; fraction unbound [6]: < 0.002; Papp B→A [7]: 0.6 ×10⁻⁶ cm/s; recovery [8]: 52%; efflux ratio [9]: > 324
–	≥ 4	–	19	281	CCS(=O)(=O)c1ccc(CC(=O)Nc2cc(-c3cccnc3OCc3cccc(C#N)c3)cs2)cc1	50	–
30	3.9	700	20	11.3	CCS(=O)(=O)c1ccc(CC(=O)Nc2cc(-c3cc(C#N)cc(F)c3OC)cs2)cc1	60	Papp A→B [5]: 1.8 ×10⁻⁶ cm/s; solubility (physchem): 0.4 to 0.6 µM (≈ 0.183 to 0.275 µg/mL); hepatocyte CLint [12]: 5.6 µL/min/1e6 cells; inhibition at 11 µM (hERG (KCNH2)): 43%; clearance [13]: 5.5 mL/min/kg; Fa [14]: 92%; half-life [15]: 1.2 h; Vd [16]: 0.48 L/kg; fraction unbound [6]: 0.0017 to 0.002; Papp B→A [7]: 7.1 ×10⁻⁶ cm/s; recovery [8]: 41%; selectivity ratio [17]: < 10; efflux ratio [9]: 3.9; bioavailability [18]: 85%
29	≥ 4	25	11	45	CCS(=O)(=O)c1ccc(CC(=O)Nc2cc(-c3cccnc3OC/C=C/c3ccccc3)cs2)cc1	40	selectivity ratio [17]: 100
–	> 4.1	–	–	–	CCS(=O)(=O)c1ccc(CC(=O)Nc2cc(-c3cccc(Cl)c3)cs2)cc1	–	–
40	3.5	> 3300	30	–	CCS(=O)(=O)c1ccc(CC(=O)Nc2cc(-c3cc(C#N)cnc3OC)cs2)cc1	–	permeability ([5]; Caco-2): 2.6 ×10⁻⁶ cm/s; fraction unbound [6]: 0.0009; permeability ([7]; Caco-2): 17.1 ×10⁻⁶ cm/s; recovery [8]: 44%
110	3.6	–	410	13	CCS(=O)(=O)c1ccc(CC(=O)Nc2cc(-c3cccnc3OC)cs2)cc1	–	–
–	≥ 4	–	29	125	CCS(=O)(=O)c1ccc(CC(=O)Nc2cc(-c3cccnc3OCCc3ccccc3)cs2)cc1	70	–
120	2.8	–	340	–	CCS(=N)(=O)c1ccc(CC(=O)Nc2cc(-c3cc(C#N)ccc3OC)cs2)cc1 (stereo not drawn)	–	–
90	> 4	–	50	–	CCS(=O)(=O)c1ccc(CC(=O)Nc2cc(-c3cc(Cl)cc(C#N)c3)cs2)cc1	–	–
700	2.8	–	1850	–	CCS(=O)(=O)c1ccc(CC(=O)Nc2cc(-c3cncnc3OC)cs2)cc1	–	–
30	≥ 4	100	10	286	CCS(=O)(=O)c1ccc(CC(=O)Nc2cc(-c3cccnc3OCc3ccc(C#N)cc3)cs2)cc1	50	–
–	≥ 4	–	46	196	CCS(=O)(=O)c1ccc(CC(=O)Nc2cc(-c3cccnc3Oc3ccccc3)cs2)cc1	50	–
50	–	100	18	17	CCS(=O)(=O)c1ccc(CC(=O)Nc2cc(-c3cccnc3OCC(F)(F)F)cs2)cc1	–	–
21	≥ 4	35	14	> 300	CCS(=O)(=O)c1ccc(CC(=O)Nc2cc(-c3cccnc3OCc3ccc(C(=O)OC)cc3)cs2)cc1	–	selectivity ratio [17]: 100
–	3.3	–	–	–	CCS(=O)(=O)c1ccc(C(NC(C)=O)C(=O)Nc2cc(-c3cc(C#N)cc(F)c3OC)cs2)cc1 (stereo not drawn)	–	Papp A→B [5]: 0.3 ×10⁻⁶ cm/s; solubility (physchem): 200 µM (≈ 103 µg/mL); Fa [14]: 19%; Vd [16]: 0.34 L/kg; Papp B→A [7]: 18 ×10⁻⁶ cm/s; bioavailability [18]: 18%

IC50 [1] [nM]	logD [2]	IC50 [3] [nM]	IC50 [4] [nM]	hepatocyte CLint [11] [µL/min/1e6 cells]	Compound	Emax [10] [%]	also measured
55	3.4	640	66	10.4	CCS(=O)(=O)c1ccc(C(NC(C)=O)C(=O)Nc2cc(-c3cccnc3Oc3ccc(C#N)cc3)cs2)cc1 (stereo not drawn)	–	–
440	3.4	–	1290	–	CC[S+]([O-])c1ccc(CC(=O)Nc2cc(-c3cc(C#N)cnc3OC)cs2)cc1 (stereo not drawn)	–	–
780	3.7	–	1160	–	CCS(=O)(=O)c1ccc(CC(=O)Nc2cc(-c3ccc(C#N)cc3Cl)cs2)cc1	–	–
80	≥ 4	–	150	28	CCOc1ncccc1-c1csc(NC(=O)Cc2ccc(S(=O)(=O)CC)cc2)c1	–	–
452	3.2	1690	75	11	CCS(=O)(=O)c1ccc(C(N)C(=O)Nc2cc(-c3cc(C#N)cc(F)c3OC)cs2)cc1 (stereo not drawn)	–	–
3250	3.2	–	3250	–	CCS(=O)(=O)N1CCC(CC(=O)Nc2cc(-c3cc(C#N)cnc3OC)cs2)CC1	–	–
40	3.5	> 3300	70	–	CNS(=O)(=O)c1ccc(CC(=O)Nc2cc(-c3cc(C#N)cnc3OC)cs2)cc1	–	Papp A→B [5]: 0.65 ×10⁻⁶ cm/s; solubility (physchem): 0.34 µM (≈ 0.15 µg/mL); fraction unbound [6]: < 0.001; Papp B→A [7]: 26 ×10⁻⁶ cm/s; recovery [8]: 55%; efflux ratio [9]: 40
30	3.6	> 3300	20	–	CCS(=O)(=O)c1ccc(CC(=O)Nc2cc(-c3cc(C#N)ccc3OC)cs2)cc1	–	Papp A→B [5]: 1.6 ×10⁻⁶ cm/s; solubility (physchem): 0.43 µM (≈ 0.189 µg/mL); fraction unbound [6]: 0.001; Papp B→A [7]: 12 ×10⁻⁶ cm/s; recovery [8]: 41%; efflux ratio [9]: 7.6
–	> 4	–	7	24	CCS(=O)(=O)c1ccc(C(NC(C)=O)C(=O)Nc2cc(-c3cccnc3OCc3ccccc3)cs2)cc1 (stereo not drawn)	–	–
–	3.6	190	88	28	CCS(=O)(=O)c1ccc(CC(=O)Nc2cc(-c3cccnc3Oc3ccc(C#N)cc3)cs2)cc1	–	–
67	3.3	990	14	4	CCS(=O)(=O)c1ccc(C(NC(C)=O)C(=O)Nc2cc(-c3cc(C#N)cnc3OC)cs2)cc1 (stereo not drawn)	–	–
–	≥ 4	–	59	80	CCCOc1ncccc1-c1csc(NC(=O)Cc2ccc(S(=O)(=O)CC)cc2)c1	40	–
–	≥ 4	> 3300	17	104	CCS(=O)(=O)c1ccc(CC(=O)Nc2cc(-c3cccnc3OCCCc3ccccc3)cs2)cc1	30	–
60	3.8	–	50	–	CCS(=O)(=O)c1ccc(CC(=O)Nc2cc(-c3cc(C#N)ccc3Cl)cs2)cc1	–	–
–	> 4	–	20	128	CCS(=O)(=O)c1ccc(CC(=O)Nc2cc(-c3cccnc3OCc3ccccc3)cs2)cc1	30	solubility (physchem): 0.42 µM (≈ 0.207 µg/mL); fraction unbound [6]: 0.0003; selectivity ratio [17]: < 10
75	4.6	32	6	9.1	CCS(=O)(=O)c1ccc(C(NC(C)=O)C(=O)Nc2cc(-c3cccnc3OCc3ccc(OC(F)(F)F)cc3)cs2)cc1 (stereo not drawn)	–	–
